Experimental data reported in patent publication US10933075B2, “Materials and methods for suppressing and/or treating bacterial infections and related symptoms” (Indiana University Research and Technology Corporation, priority 2017, dated 2021).

How the values were obtained:
[1] = in vivo; cited from earlier work
[2] = system: SaeRS two component system (P1 promoter); test: pYJ-P1-GFP reporter, Sae activity (P1 promoter activity); type: cell-based, S. aureus strain USA300; conditions: grown in TSB for 3 h, various concentrations (FIG. 3B)
Description: FIG. 3B. Graph illustrating the effect of three compounds on Sae activity of Staphylococcus aureus. Cells were grown in TSB for 3 hours in the presence of the compounds (e.g., Streptozotocin, Floxuridine, and Doxorubicin) using various concentrations as indicated. The P1 promoter has two SaeR binding sites and its activity is an excellent indicator for the Sae activity.
The sae operon consists of four genes (saeP, saeQ, saeR, and saeS), and the two promoters P1 and P3. The P1 promoter resides in the front of the very first gene saeP and can transcribe all four genes. The P1 promoter has two SaeR binding sequences (SBSs). The P1 promoter in front of the sae operon is well characterized target of the SaeRS two component system. Here, the reporter plasmid pYJ-P1-GFP was used in the library screening and the expression level of GFP was interpreted as the Sae activity.
(§1) In the library screening, S. aureus strain USA300 was grown with pYJ-P1-GFP in the presence of 10 μM test compound for 3 hours. Then the effects of the each drug on growth and GFP expression were measured. In the primary screening, about 9,000 test compounds (3,000 FDA-approved drugs, 6,000 DCL library compounds) were tested.
(§2) Referring now to FIGS. 3A and 3B, the effects of the three compounds on growth (A) and Sae activity (B) of Staphylococcus aureus were measured. The cells were grown in TSB for 3 h in the presence of the compounds with various concentrations as indicated.

Staphylococcus aureus = test: Effect on growth of Staphylococcus aureus; type: cell-based; conditions: grown in TSB for 3 h, various concentrations (FIG. 3A)
Description: FIG. 3A. Graph illustrating the effect of three compounds on growth of Staphylococcus aureus. Cells were grown in TSB for 3 hours in the presence of the compounds (e.g., Streptozotocin, Floxuridine, and Doxorubicin) using various concentrations as indicated.
as §1, §2

S. aureus USA300 = test: Murine model of peritoneal infection (survival, anti-virulence effect); type: in vivo, mice; conditions: for anti-virulence activity against S. aureus infection in mice (percent survival): S. aureus 2×10^8 CFU i.p., n=10-18 (FIGS. 4-6); for anti-virulence effect: mice i.p. infected with S. aureus USA300, 50 μg i.p. once every day for 7 days, from one hour post infection; for anti-virulence effect, confirmation by repeating the mouse experiment: repeat of the mouse experiment; for in vivo efficacy, dose dependence: administered after infection for 7 days (FIG. 7)
Description: FIG. 4. Effect of Streptozotocin on survival. […] Open circles represent percent survival of treated mice (i.e., steptozotocin) after the indicated period. Closed circles represent percent survival of untreated mice (i.e., control). S. aureus (2×10^8 CFU) were i.p. injected into mice (n=10-18).
In this model, mice were i.p. infected with S. aureus USA300. One hour post infection, the test compounds were administered via i.p. injection once every day for 7 days.
To determine the minimal dosage of the compounds for their protective effect, a different amount of the compounds (0-100 μg) were administered after S. aureus infection for 7 days as described above.
The biological half-life of streptozotocin is about 35-40 min. […] Although we administered the compounds every day for 7 days, due to their short half-lives, it is likely that S. aureus cells were exposed to the compounds only briefly. […] To examine the hypothesis, after 2 h post infection with S. aureus, we administered the compounds only once (25 μg for streptozotocin and floxuridine; 50 μg for doxorubicin) and watched the infected mice for 7 days.

[3] = system: Agr quorum sensing system, Arl two-component system, SarA DNA binding protein; test: qRT-PCR of agrC, arlS, sarA transcription normalized by gyrB; type: cell-based, S. aureus USA300; conditions: 1 μg/mL (=3.8 μM for streptozotocin, 4 μM for floxuridine), 3 h (FIG. 9)
Description: FIG. 9. Streptozotocin (SZ) and floxuridine (FU) repress other signalling systems critical for staphylococcal virulence. The transcription level of the indicated genes was analyzed by qRT-PCR and normalized by the transcription level of gyrB. agrC, the gene of the sensor kinase of the Agr quorum sensing system; arlS, the gene of the sensor kinase of the Arl two componenet system; sarA, the gene of the DNA binding protein SarA; NT, no treatment.
The virulence of S. aureus is thought to be controlled by multiple signaling systems. Along with the Sae signaling system, the Agr quorum sensing system, Arl two-component system, and SarA DNA binding protein are known to contribute to staphylococcal virulence. To explain the high in vivo efficacy of streptozotocin and floxuridine, S. aureus USA300 was treated with 1 μg/mL (=3.8 μM for streptozotocin, 4 μM for floxuridine) for 3 h, purified total RNA and carried out qRT-PCR.

| SMILES | Sae activity (P1 promoter activity) [2] | growth of Staphylococcus aureus (Staphylococcus aureus) | anti-virulence activity against S. aureus infection in mice (percent survival) (S. aureus USA300) | anti-virulence effect (S. aureus USA300) | anti-virulence effect, confirmation by repeating the mouse experiment (S. aureus USA300) | transcription level of agrC, arlS, sarA (signaling systems critical for virulence) [3] | further results |
| --- | --- | --- | --- | --- | --- | --- | --- |
| O=c1[nH]cc(F)c(=O)[nH]1 [5-FU, 5′fluorouracil] | – | – | – | – | – | – | half-life [1]: 8 to 14 min |
| COc1cccc2c1C(=O)c1c(O)c3c(c(O)c1C2=O)C[C@@](O)(C(=O)CO)C[C@@H]3O[C@H]1C[C@H](N)[C@H](O)[C@H](C)O1 [Doxorubicin] | reduced P1 promoter activity | reduced growth | exhibited anti-virulence activity | anti-virulence effect | significant anti-virulence effect | – | – |
| O=C1OC2(c3ccccc31)c1cc(I)c(O)c(I)c1Oc1c2cc(I)c(O)c1I [Erythrosine sodium] | – | – | – | anti-virulence effect | – | – | – |
| O=c1[nH]c(=O)n([C@H]2C[C@H](O)[C@@H](CO)O2)cc1F [Floxuridine] | reduced P1 promoter activity | reduced growth | exhibited anti-virulence activity | anti-virulence effect | significant anti-virulence effect | inhibit multiple signaling systems | in vivo efficacy, dose dependence (S. aureus USA300; 10 μg): statistically significant in vivo efficacy; catabolism [1]: rapidly catabolized to 5′fluorouracil |
| CC(=O)[C@H]1CC[C@H]2[C@@H]3CC=C4C[C@@H](OC(=O)CCC(=O)O)CC[C@]4(C)[C@H]3CC[C@]12C [Pregnenolone succinate] | – | – | – | anti-virulence effect | – | – | – |
| CN(N=O)C(=O)NC1C(O)[C@H](O)C(CO)O[C@H]1O (stereo partly shown) [Streptozotocin] | reduced P1 promoter activity | reduced growth | exhibited anti-virulence activity | anti-virulence effect | significant anti-virulence effect | inhibit multiple signaling systems | in vivo efficacy, dose dependence (S. aureus USA300; 5 μg): statistically significant in vivo efficacy; in vivo efficacy, dose dependence (S. aureus USA300; 10-100 μg): comparable in vivo efficacy; biological half-life [1]: 35-40 min |
